Assay [1] has as its system GST-galectin-14. As to the kind of experiment: Saccharide inhibition of GST-galectin-14 induced hemagglutination. The class given is cell-based, rabbit. Particulars: 0.28 μM GST-galectin-14; sugars 0.78-100 mM. The method, then:
FIG. 14 is an image of a hemagglutination assay using GST-galectin-14 fusion protein. Agglutination of rabbit erythrocytes was assayed in a 96-well microtiter plate. Assays were conducted in the presence (2, 3, 4, and 5) or absence (1 and 6) of 0.28 μM recombinant GST-galectin-14, the minimum concentration to induce agglutination. Increasing concentrations (0.78-100 mM) of lactose (2), galactose (3), or N-acetyl-glucosamine (4) were added to inhibit agglutination. In the presence of GST-galectin-14 without sugar (5) the rabbit erythrocytes form a “mat” at the bottom of the wells. The assay buffer DES alone (1) and 3 μM rGST (6) were included as negative controls. Trypsin-treated, glutaraldehyde fixed rabbit erythrocytes were prepared and tested in an agglutination assay according to the method of Nowak et al. (Nowak et al. (1976) supra). Agglutination assays were performed in 96-well V-shaped microtiter plates with serial 2-fold dilutions of samples in 25 μl of DES (0.15 M NaCl, 2 mM EDTA, 2 mM dithiothreitol), 50 μl of 0.5% (w/v) BSA in 0.15 M NaCl and 25 μl of a 4% suspension of rabbit erythrocytes. The plates were shaken vigorously for 30 s, and agglutination was read after the plates had stood at room temperature for 1 h. Agglutinated erythrocytes formed a “mat” on the bottom of the well. For assessment of the inhibitory effects of saccharides, lactose, galactose, and N-acetyl-glucosamine were serially diluted in 25 μl of 0.15 M NaCl prior to the addition of recombinant protein in DES, 25 μl of 1% (w/v) BSA in 0.15 M NaCl, and 4% erythrocytes in PBS. The minimum concentration of GST-galectin-14 that gave mat formation (0.28 μM) was used in the saccharide inhibition assay. For assessment of the effects of antibody on GST-galectin-14 hemagglutination, ascites and supernatants from monoclonal antibodies and polyclonal rabbit sera all raised to recombinant galectin-14 were serially diluted in 25 μl of 0.15 M NaCl prior to the addition of recombinant protein in DES, 25 μl of 1% (w/v) BSA in 0.15 M NaCl, and 4% erythrocytes in PBS. […]

In assay [2] the test system is GST-galectin-14 binding to laminin. As to the kind of experiment: Lactose inhibition of GST-galectin-14 binding to immobilised laminin. Particulars: 0.3 M lactose added. The method, then: FIG. 17 is an image of the saturation binding of GST-galectin-14 fusion protein to immobilised laminin. Laminin binding of GST-galectin-14 fusion protein was assayed using a solid-phase binding assay in a 96-well microtitre plate. Serial dilutions of GST-galectin-14 (▪) and GST (▴) were added to microtitre wells containing laminin. 0.3 M Lactose was added to GST-galectin-14 to inhibit binding (◯). The level of bound protein was monitored by the binding of rabbit anti-GST HRP antibody developed with TMB substrate and detected by a change in absorbance at 450 nm. Laminin binding activity was measured according to the method of Mazurek et al. with some modification. Briefly, the wells of a 96-well microtitre plate were coated with laminin from Engelbreth-Holm-Swarm murine sarcoma (Sigma) at 1 μg/100 μl of carbonate coating buffer (15 mM Na2CO3, 35 mM NaHCO3, pH 9.6) per well overnight at 4° C. Non-specific binding sites were blocked with 200 μl of 0.5% Tween 20 in PBS for 1 h. Plates were washed 3 times in 0.05% Tween 20 PBS and incubated with 50 μl serial dilutions of GST-galectin-14 or GST alone, diluted in 0.5% Tween 20 PBS, for 1.5 h at 37° C. Control wells contained 0.3 M lactose. […] The reaction was terminated with 100 μl 2 M sulphuric acid and the colour change monitored using a dual wavelength mode plate reader (Bio-tek instruments) at 450 nm, ref 690 nm.

Assay [3] concerns rabbit erythrocytes. As to the kind of experiment: Hemagglutination assay on trypsin-treated, glutaraldehyde fixed rabbit erythrocytes. Particulars: negative control protein, 3 μM rGST. The class given is cell-based. How it is done:
Trypsin-treated, glutaraldehyde fixed rabbit erythrocytes were prepared and tested in an agglutination assay according to the method of Nowak et al. (Nowak et al. (1976) supra). Agglutination assays were performed in 96-well V-shaped microtiter plates with serial 2-fold dilutions of samples in 25 μl of DES (0.15 M NaCl, 2 mM EDTA, 2 mM dithiothreitol), 50 μl of 0.5% (w/v) BSA in 0.15 M NaCl and 25 μl of a 4% suspension of rabbit erythrocytes. The plates were shaken vigorously for 30 s, and agglutination was read after the plates had stood at room temperature for 1 h. Agglutinated erythrocytes formed a “mat” on the bottom of the well. For assessment of the inhibitory effects of saccharides, lactose, galactose, and N-acetyl-glucosamine were serially diluted in 25 μl of 0.15 M NaCl prior to the addition of recombinant protein in DES, 25 μl of 1% (w/v) BSA in 0.15 M NaCl, and 4% erythrocytes in PBS. The minimum concentration of GST-galectin-14 that gave mat formation (0.28 μM) was used in the saccharide inhibition assay. For assessment of the effects of antibody on GST-galectin-14 hemagglutination, ascites and supernatants from monoclonal antibodies and polyclonal rabbit sera all raised to recombinant galectin-14 were serially diluted in 25 μl of 0.15 M NaCl prior to the addition of recombinant protein in DES, 25 μl of 1% (w/v) BSA in 0.15 M NaCl, and 4% erythrocytes in PBS. […]

`CC(=O)N[C@H]1C(O)O[C@H](CO)[C@@H](O)[C@@H]1O` (some centres unmarked) [N-acetyl-glucosamine]: in assay [1], the “lowest sugar concentration at which inhibition of agglutination becomes evident” value is given as 50 mM.
Still for that read-out and setting: in the case of `O=C[C@H](O)[C@@H](O)[C@@H](O)[C@H](O)CO` [galactose] it was 12.5 mM.
For `OC[C@H]1O[C@@H](O[C@H]2[C@H](O)[C@@H](O)C(O)O[C@@H]2CO)[C@H](O)[C@@H](O)[C@H]1O` (some centres unmarked) [lactose], the “effect on binding of GST-galectin-14 to laminin” value in assay [2] was “reduced to the level of the control”. In addition, the “lowest sugar concentration at which inhibition of agglutination becomes evident” value in assay [1] was 0.78 mM.
Take “GST: GST moiety alone, used as negative control protein [reference compound]”: the induction of hemagglutination result in assay [3] was “does not”.

Source of the values: US20060057665A1, “Galectin-14 therapeutic molecule and uses thereof” (The University of Melbourne, priority 2001, published 2006).
